Measurements reported in publication PMC8745332, “Synthesis, Molecular Docking and Biological Characterization of Pyrazine Linked 2-Aminobenzamides as New Class I Selective Histone Deacetylase (HDAC) Inhibitors with Anti-Leukemic Activity” (International Journal of Molecular Sciences, 2021).
Like-named read-outs stand apart in the source and are kept apart here.

Tests used:
[1] = target: T1, human HDAC3/NCOR1 (Homo sapiens, UniProt O15379); assay: In vitro HDAC3 inhibition assay, fluorogenic p53 peptide Ac-RHKK(Acetyl)-AMC; type: biochemical
T1 construct: purchased ENZO Life Sciences AG (Lausen, CH)
T1 sequence (O15379 whole entry): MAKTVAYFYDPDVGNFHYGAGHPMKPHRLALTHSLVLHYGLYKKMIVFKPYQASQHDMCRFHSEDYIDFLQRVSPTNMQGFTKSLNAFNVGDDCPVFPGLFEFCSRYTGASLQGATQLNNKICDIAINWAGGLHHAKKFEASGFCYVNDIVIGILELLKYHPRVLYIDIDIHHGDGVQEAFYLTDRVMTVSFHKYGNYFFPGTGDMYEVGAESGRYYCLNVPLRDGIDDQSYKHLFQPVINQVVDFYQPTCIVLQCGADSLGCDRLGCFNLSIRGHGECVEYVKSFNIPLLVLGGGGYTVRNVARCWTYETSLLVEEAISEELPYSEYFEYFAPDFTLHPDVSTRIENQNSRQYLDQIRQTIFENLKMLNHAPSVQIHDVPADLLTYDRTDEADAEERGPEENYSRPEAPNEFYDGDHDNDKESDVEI
T1 sequence (O75376 395-489 partner limits assumed): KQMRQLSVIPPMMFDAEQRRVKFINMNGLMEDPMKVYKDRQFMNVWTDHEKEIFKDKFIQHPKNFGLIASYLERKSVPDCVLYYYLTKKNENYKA
Method: (§1) Recombinant human HDAC1, HDAC2, and HDAC3/NCOR1 were purchased from ENZO Life Sciences AG (Lausen, CH). Recombinant human HDAC 4, HDAC5, HDAC7, HDAC9 and HDAC11 were produced by Barinka lab in Prague, as described before. Recombinant human HDAC8 was produced by Romier et al. (IGBMC, Univ. Strasbourg), as described in [55].
The in vitro testing on recombinant HDACs 1-3 were performed with a fluorogenic peptide derived from p53 (Ac-RHKK(Acetyl)-AMC). The measurements were performed in an assay buffer (50 mM Hepes, 150 mM NaCl, 5 mM MgCl2, 1 mM TCEP and 0.2 mg/mL BSA, pH 7.4 adjusted with NaOH) at 37 °C. Inhibitors at different concentrations were incubated with 10 nM HDAC1, 3 nM HDAC2 or 3 nM HDAC3 (final concentration) for at least 5 min. The reaction was started with the addition of the fluorogenic substrate (20 µM final concentration) and incubated for 30 min for HDAC2 and HDAC3 and 90 min for HDAC1. The reaction was stopped with a solution of 1 mg/mL trypsin and 20 µM SAHA in 1 mM HCl and incubated for 1 h at 37 °C. […] The received fluorescence intensities were normalized with uninhibited reaction as 100% and the reaction without enzyme as 0%. A nonlinear regression analysis was done to determine the IC50 value.

[2] = target: T2, human HDAC4 (Homo sapiens, UniProt P56524); assay: HDAC4 dose response, substrate Abz-SRGGK(thio-TFA)FFRR-NH2; type: biochemical
T2 construct: made in house
T2 sequence (P56524 whole entry): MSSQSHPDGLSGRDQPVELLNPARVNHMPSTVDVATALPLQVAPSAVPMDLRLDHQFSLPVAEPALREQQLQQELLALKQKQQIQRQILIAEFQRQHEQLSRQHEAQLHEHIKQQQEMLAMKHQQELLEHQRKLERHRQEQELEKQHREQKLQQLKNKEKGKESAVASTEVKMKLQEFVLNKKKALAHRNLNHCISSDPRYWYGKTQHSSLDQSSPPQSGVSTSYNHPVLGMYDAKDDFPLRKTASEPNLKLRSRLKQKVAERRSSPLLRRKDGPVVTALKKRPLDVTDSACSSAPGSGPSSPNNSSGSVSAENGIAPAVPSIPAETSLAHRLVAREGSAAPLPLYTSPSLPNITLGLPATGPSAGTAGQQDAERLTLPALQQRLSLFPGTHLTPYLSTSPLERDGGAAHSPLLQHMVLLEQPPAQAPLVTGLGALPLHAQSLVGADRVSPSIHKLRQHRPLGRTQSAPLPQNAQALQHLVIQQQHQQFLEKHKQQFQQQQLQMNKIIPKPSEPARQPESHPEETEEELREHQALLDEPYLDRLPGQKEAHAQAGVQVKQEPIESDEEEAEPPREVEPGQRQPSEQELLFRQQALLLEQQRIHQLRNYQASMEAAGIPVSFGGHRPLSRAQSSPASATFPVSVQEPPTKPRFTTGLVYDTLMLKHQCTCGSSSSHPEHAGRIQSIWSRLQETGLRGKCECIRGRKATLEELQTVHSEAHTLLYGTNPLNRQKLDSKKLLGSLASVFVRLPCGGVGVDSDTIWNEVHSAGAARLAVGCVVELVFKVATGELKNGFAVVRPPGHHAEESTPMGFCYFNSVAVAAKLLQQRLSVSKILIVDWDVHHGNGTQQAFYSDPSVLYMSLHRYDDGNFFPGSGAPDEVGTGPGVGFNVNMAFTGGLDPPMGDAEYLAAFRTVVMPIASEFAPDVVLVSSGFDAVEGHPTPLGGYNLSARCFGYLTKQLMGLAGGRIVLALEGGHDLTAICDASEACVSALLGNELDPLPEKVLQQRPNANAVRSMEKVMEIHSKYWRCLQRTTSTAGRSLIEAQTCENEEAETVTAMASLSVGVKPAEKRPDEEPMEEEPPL
Method: as §1
(§2) The determination of dose response curves for HDAC4, 5, 7 and 9 was performed as previously described with compound 4 as substrate (Abz-SRGGK(thio-TFA)FFRR-NH2). The substrate concentration was 50 µM and the enzyme concentration was 10 nM for HDAC4 and HDAC5, 5 nM for HDAC7 and 20 nM for HDAC9. HDAC11 inhibition assay was performed as described before. The fluorescence intensity was recorded with an Envision 2104 Multilabel Plate Reader (PerkinElmer, Waltham, MA) with an excitation wavelength of 330 ± 75 nm and an emission wavelength of 430 ± 8 nm.

[3] = target: T3, human HDAC7 (Homo sapiens, UniProt Q8WUI4); assay: HDAC7 dose response, substrate Abz-SRGGK(thio-TFA)FFRR-NH2; type: biochemical
T3 construct: made in house
T3 sequence (Q8WUI4 1-952): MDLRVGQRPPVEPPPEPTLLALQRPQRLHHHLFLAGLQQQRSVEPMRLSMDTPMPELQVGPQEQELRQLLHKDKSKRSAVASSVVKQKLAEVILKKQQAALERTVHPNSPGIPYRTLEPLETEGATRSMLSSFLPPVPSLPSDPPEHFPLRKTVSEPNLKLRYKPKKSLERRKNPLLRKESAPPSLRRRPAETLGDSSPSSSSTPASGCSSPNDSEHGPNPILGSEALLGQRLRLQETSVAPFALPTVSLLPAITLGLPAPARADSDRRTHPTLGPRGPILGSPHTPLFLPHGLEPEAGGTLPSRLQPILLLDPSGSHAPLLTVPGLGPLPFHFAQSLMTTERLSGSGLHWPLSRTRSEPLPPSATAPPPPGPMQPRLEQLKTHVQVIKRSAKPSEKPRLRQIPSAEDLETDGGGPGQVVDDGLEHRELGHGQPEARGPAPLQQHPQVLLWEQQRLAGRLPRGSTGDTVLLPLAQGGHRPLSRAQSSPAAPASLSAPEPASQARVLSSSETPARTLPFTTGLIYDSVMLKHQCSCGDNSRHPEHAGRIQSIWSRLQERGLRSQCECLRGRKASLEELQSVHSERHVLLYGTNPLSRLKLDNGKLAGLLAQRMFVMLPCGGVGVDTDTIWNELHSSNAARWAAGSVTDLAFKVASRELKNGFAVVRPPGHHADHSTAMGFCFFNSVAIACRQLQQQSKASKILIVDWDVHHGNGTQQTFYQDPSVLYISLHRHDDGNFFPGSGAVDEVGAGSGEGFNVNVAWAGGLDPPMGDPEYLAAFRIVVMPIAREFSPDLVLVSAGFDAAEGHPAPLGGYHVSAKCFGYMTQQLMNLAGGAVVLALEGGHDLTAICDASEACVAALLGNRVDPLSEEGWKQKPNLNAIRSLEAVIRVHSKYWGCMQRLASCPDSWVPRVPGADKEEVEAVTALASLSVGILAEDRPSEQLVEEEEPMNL
Method: as §1, §2

[4] = target: T4, human HDAC9 (Homo sapiens, UniProt Q9UKV0); assay: HDAC9 dose response, substrate Abz-SRGGK(thio-TFA)FFRR-NH2; type: biochemical
T4 construct: made in house
T4 sequence (Q9UKV0 whole entry): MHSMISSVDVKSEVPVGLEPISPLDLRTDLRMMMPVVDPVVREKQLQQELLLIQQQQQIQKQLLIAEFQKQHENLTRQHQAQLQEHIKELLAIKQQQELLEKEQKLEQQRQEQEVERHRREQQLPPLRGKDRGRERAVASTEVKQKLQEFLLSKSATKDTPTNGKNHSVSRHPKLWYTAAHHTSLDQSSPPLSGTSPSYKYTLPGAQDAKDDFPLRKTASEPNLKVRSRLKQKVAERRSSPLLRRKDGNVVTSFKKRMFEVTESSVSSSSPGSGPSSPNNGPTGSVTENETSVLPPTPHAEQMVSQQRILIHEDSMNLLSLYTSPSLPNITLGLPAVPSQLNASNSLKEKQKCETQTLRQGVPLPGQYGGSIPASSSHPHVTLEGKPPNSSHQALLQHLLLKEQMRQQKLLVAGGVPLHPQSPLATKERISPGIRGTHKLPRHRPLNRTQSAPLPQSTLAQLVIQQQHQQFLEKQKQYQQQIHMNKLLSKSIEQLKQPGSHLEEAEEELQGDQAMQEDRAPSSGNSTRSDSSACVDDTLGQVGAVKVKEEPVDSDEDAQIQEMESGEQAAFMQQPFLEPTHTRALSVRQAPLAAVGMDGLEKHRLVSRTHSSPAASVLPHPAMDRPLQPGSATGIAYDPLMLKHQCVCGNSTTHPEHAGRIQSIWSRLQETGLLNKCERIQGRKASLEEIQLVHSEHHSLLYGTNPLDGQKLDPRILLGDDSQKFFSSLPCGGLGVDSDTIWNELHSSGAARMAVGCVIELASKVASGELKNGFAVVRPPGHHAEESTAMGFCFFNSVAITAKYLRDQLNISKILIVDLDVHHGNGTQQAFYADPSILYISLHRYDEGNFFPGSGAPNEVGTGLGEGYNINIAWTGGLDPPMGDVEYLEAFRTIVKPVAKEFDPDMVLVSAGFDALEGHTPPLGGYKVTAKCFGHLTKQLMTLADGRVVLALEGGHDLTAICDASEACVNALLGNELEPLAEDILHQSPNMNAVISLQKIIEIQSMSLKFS
Method: as §1, §2

[5] = target: T5, human HDAC8 (Homo sapiens, UniProt Q9BY41); assay: HDAC8 homogenous fluorescence assay with ZMAL substrate; type: biochemical; conditions: read-out: HDAC8 (% Inhib.)
T5 construct: made in house
T5 sequence (Q9BY41 1-377): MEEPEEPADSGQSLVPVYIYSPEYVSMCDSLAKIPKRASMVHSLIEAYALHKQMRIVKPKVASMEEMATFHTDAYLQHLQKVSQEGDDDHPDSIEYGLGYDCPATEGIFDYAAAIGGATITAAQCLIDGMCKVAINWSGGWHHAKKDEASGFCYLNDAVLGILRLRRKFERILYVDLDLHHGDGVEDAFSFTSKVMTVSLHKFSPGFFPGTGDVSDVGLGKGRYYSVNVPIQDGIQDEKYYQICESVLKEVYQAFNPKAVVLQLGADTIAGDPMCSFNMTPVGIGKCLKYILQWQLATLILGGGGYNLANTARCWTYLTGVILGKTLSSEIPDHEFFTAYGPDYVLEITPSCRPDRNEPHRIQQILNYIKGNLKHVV
Method: as §1
Fluorescence intensity was measured at an excitation wavelength of 390 nm and an emission wavelength of 460 nm in a microtiter plate reader (BMG Polarstar).

[6] = system: MOLM-13 cells; assay: Apoptosis in MOLM-13 cells, annexin-V/PI flow cytometry; type: cell-based, human; conditions: for IC50: Homo sapiens
Method: We measured the induction of early (increased exposure of phosphatidylserine on the cell surface and therefore positive staining for annexin-V-FITC) and late apoptosis (positivity for annexin-V and accumulation of propidium iodide, PI) by flow cytometry.
All leukemic cells were kept in RPMI-1640 medium supplemented with 10% FBS and 1%penicillin/streptomycin (Sigma-Aldrich, Taufkirchen, Germany) under standard culture conditions at 37 °C and a 5% CO2 humidified atmosphere. Cells were authenticated as mentioned by us.

[7] = system: MV4-11 and MOLM-13 cells; assay: Immunoblot of acetylated histone H3 and cleaved caspase-3; type: cell-based, human; conditions: MV4-11 and MOLM-13 cells, 0.25, 0.5, 1 µM, 24 h
Method: (C,D) The same experiments were conducted with MOLM-13 cells. (E) IC50 values were determined for 19f. (F) Immunoblot was done with the stated antibodies and lysates of MV4-11 and MOLM-13 cells that were incubated with the HDACi for 24 h. […] Graphs show representatives of three independent experiments.

Row | inhibition at 1 µM ([1]; read-out: HDAC3 % inhibition @ 1 µM) | Compound | IC50 [2] | IC50 [3] | IC50 [4] | IC50 ([1]; 3 nM HDAC3, 20 µM substrate, 30 min, 37 °C) | inhibition at 1 µM [5] | IC50 ([6]; MOLM-13, 48 h, read-out: IC50 (apoptosis, annexin-V/PI)) | IC50 ([6]; MOLM-13 cells, 24 h, annexin-V/PI, read-out: IC50 for apoptosis induction) | IC50 ([6]; MOLM-13 cells, after 48 h, read-out: IC50 values for growth inhibition) | fold higher potency than MS-275 (apoptosis induction) ([6]; MOLM-13 cells, versus MS-275) | accumulation of acetylated histone H3 (immunoblot) [7]
1 | 0% | Cn1cc(CCN2CCN(c3cnc(C(=O)Nc4cc(-c5cccs5)ccc4N)cn3)CC2)c2ccccc21 [21a, N-(2-Amino-5-(thiophen-2-yl)phenyl)-5-(4-(2-(1-methyl-1H-indol-3-yl)ethyl)piperazin-1-yl)pyrazine-2-carboxamide] | > 20 µM | > 20 µM | > 20 µM |  |  |  |  |  |  | 
2 |  | Nc1ccccc1NC(=O)c1cnc(N2CCN(Cc3c[nH]c4ccccc34)CC2)cn1 [19f, 5-(4-((1H-indol-3-yl)methyl)piperazin-1-yl)-N-(2-aminophenyl)pyrazine-2-carboxamide] | > 20 µM | > 20 µM | > 20 µM | 0.31 ± 0.01 µM | 0% | 318 nM | 397 nM | ~300 nM | 4 fold | triggered the expected accumulation of acetylated histone H3 dose-dependently and more potently than MS-275 did
